For the test, the target named is T1, GST-Xa-hAAK1 (Homo sapiens, UniProt Q2M2I8).
T1 construct: GST (N); Factor Xa cleavage site (Xa) (internal); made in house
Nature of the test: AAK1 Kinase Assay. It is filed as biochemical. The following applies: bacterially expressed GST-Xa-hAAK1 3.5 nM; ATP 22 μM; fluoresceinated peptide 1.5 μM; 3 hours at room temperature; Caliper LabChip 3000. How it is done:
The assays were performed in U-bottom 384-well plates. The final assay volume was 30 μl prepared from 15 μl additions of enzyme and substrates (fluoresceinated peptide (5-FAM)-Aha-[…]-NH2 and ATP) and test compounds in assay buffer (10 mM Tris-HCL pH 7.4, 10 mM MgCl2, 0.01% Tween-20 and 1.0 mM DTT). The reactions were initiated by the combination of bacterially expressed, GST-Xa-hAAK1 with substrates and test compounds. The reactions were incubated at room temperature for 3 hours and terminated by adding 60 μl of 35 mM EDTA buffer to each sample. The reactions were analyzed on the Caliper LabChip 3000 (Caliper, Hopkinton, Mass.) by electrophoretic separation of the fluorescent substrate and phosphorylated product. […] The final concentration of reagents in the assays are ATP, 22 μM; (5-FAM)-Aha-[…]-NH2, 1.5 μM; GST-Xa-hAAK1, 3.5 nM; and DMSO, 1.6%. […] Compounds were dissolved at 10 mM in dimethylsulfoxide (DMSO) and evaluated at eleven concentrations. IC50 values were derived by non-linear regression analysis.

SMILES strings stand for the structures.

T1 sequence (Q2M2I8 whole entry): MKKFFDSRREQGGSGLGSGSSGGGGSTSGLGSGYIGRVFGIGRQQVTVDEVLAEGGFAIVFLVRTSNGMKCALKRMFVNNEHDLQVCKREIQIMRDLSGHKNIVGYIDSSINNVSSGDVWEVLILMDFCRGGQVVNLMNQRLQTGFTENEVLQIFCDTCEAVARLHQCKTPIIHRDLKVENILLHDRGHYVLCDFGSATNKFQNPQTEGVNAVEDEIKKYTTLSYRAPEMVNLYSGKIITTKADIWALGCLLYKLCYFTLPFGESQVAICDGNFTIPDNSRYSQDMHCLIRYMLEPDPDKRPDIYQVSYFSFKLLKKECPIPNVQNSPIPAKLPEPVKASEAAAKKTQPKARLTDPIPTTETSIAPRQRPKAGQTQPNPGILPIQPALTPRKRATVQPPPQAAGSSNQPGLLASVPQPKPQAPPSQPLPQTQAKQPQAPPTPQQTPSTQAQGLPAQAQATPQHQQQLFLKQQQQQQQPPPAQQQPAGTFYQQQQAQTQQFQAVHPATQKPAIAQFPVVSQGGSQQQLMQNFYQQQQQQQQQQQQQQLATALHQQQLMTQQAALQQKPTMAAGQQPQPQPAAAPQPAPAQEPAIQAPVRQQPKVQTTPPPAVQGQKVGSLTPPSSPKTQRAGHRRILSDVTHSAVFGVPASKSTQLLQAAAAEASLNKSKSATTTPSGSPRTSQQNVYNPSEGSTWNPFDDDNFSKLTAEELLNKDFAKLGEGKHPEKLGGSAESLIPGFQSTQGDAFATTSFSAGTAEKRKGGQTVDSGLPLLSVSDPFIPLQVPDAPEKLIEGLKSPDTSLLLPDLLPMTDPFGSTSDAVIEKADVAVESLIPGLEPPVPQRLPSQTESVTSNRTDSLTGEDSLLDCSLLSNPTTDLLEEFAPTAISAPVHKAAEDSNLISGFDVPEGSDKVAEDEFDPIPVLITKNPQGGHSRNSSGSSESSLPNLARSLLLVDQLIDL

One may read the IC50 as the concentration needed to halve the response being measured. Take `CC(C)C[C@](C)(N)COc1ccc(-c2ccnn3ccnc23)cc1C#N` [Example 287, (S)-2-((2-amino-2,4-dimethylpentyl)oxy)-5-(imidazo[1,2-b]pyridazin-8-yl)benzonitrile]: the half-inhibitory concentration (IC50) amounted to 0.5 nM.

`CC(C)C[C@](C)(N)COc1ccc(-c2ccnc3[nH]ncc23)cc1F` [Example 288, (S)-1-(2-fluoro-4-(1H-pyrazolo[3,4-b]pyridin-4-yl)phenoxy)-2,4-dimethylpentan-2-amine]: the half-maximal inhibitory concentration (IC50) was determined as 0.9 nM.

As for `CC(C)C[C@](C)(N)COc1ccc(-c2ccnc3c2cnn3C)cc1F` [Example 289, (5)-1-(2-fluoro-4-(1-methyl-1H-pyrazolo[3,4-b]pyridin-4-yl)phenoxy)-2,4-dimethylpentan-2-amine], the IC50 was 58 nM.

For `Cc1nc2c(-c3ccc(OC[C@@](C)(N)CC(C)C)c(C(F)(F)F)c3)ccnc2[nH]1` [Example 291, (S)-2,4-dimethyl-1-(4-(2-methyl-3H-imidazo[4,5-b]pyridin-7-yl)-2-(trifluoromethyl)phenoxy)pentan-2-amine], the IC50 came out at 34 nM.

In the case of `CC(C)C[C@](C)(N)COc1ccc(-c2ccnc3[nH]ncc23)cc1C(F)(F)F` [Example 292, (S)-1-(4-(1H-pyrazolo[3,4-b]pyridin-4-yl)-2-(trifluoromethyl)phenoxy)-2,4-dimethylpentan-2-amine], the 50% inhibitory concentration (IC50) was found to be 0.4 nM.

As for `Cc1nc2c(-c3ccc(OC[C@@](C)(N)CC(C)C)c(C#N)c3)ccnc2[nH]1` [Example 293, (S)-2-((2-amino-2,4-dimethylpentyl)oxy)-5-(2-methyl-3H-imidazo[4,5-b]pyridin-7-yl)benzonitrile], the 50% inhibitory concentration (IC50) stood at 14 nM.

Take `Cc1nc2c(-c3ccc(OC[C@@](C)(N)CC(C)C)c(C)c3)ccnc2[nH]1` [Example 294, (S)-2,4-dimethyl-1-(2-methyl-4-(2-methyl-3H-imidazo[4,5-b]pyridin-7-yl)phenoxy)pentan-2-amine]: the IC50 was 120 nM.

In the case of `COCc1nc2c(-c3ccc(OC[C@@](C)(N)CC(C)C)c(C(F)(F)F)c3)ccnc2[nH]1` [Example 295, (S)-1-(4-(2-(methoxymethyl)-3H-imidazo[4,5-b]pyridin-7-yl)-2-(trifluoromethyl)phenoxy)-2,4-dimethylpentan-2-amine], the IC50 came out at 22 nM.

Regarding `COCc1nc2c(-c3ccc(OC[C@@](C)(N)CC(C)C)c(C)c3)ccnc2[nH]1` [Example 296, (S)-1-(4-(2-(methoxymethyl)-3H-imidazo[4,5-b]pyridin-7-yl)-2-methylphenoxy)-2,4-dimethylpentan-2-amine], the IC50 is 132 nM.

Turning to `CC(C)C[C@](C)(N)COc1ccc(-c2ccnc3c2CC(=O)N3)cc1C#N` [Example 302, (S)-2-((2-amino-2,4-dimethylpentyl)oxy)-5-(2-oxo-2,3-dihydro-1H-pyrrolo[2,3-b]pyridin-4-yl)benzonitrile], the IC50 came out at 5.3 nM.

Consider `CC(C)C[C@](C)(N)COc1ccc(-c2ccnc3c2CC(=O)N3)cc1C(F)(F)F` [Example 303, (S)-4-(4-((2-amino-2,4-dimethylpentyl)oxy)-3-(trifluoromethyl)phenyl)-1H-pyrrolo[2,3-b]pyridin-2(3H)-one], for which the 50% inhibitory concentration (IC50) was found to be 0.6 nM.

In the case of `Cc1nccc(-c2ccc(OCC(C)(C)N)c(C)n2)n1` [Example 321, 2-methyl-1-((2-methyl-6-(2-methylpyrimidin-4-yl)pyridin-3-yl)oxy)propan-2-amine], the IC50 came to 162 nM.

Turning to `CC(C)C[C@](C)(N)COc1ccc(-c2ccnc3ccnn23)nc1C(F)F` [Example 322, (S)-1-((2-(difluoromethyl)-6-(pyrazolo[1,5-a]pyrimidin-7-yl)pyridin-3-yl)oxy)-2,4-dimethylpentan-2-amine], the IC50 is 0.4 nM.

On to `CC(C)C[C@](C)(N)COc1ccc(-c2cnn3cccnc23)cc1Cl` [Example 332], for which the IC50 turned out to be 94 nM.

For the compound `Cc1cc(-c2cnn3cccnc23)ccc1OC[C@@](C)(N)CC(C)C` [Example 333], the IC50 stood at 99 nM.

With `CC(C)C[C@](C)(N)COc1ccc(-c2ccnc(NC3CCC(F)C3)c2)cc1Cl` (stereo partly drawn) [Example 334, 4-(4-(((S)-2-amino-2,4-dimethylpentyl)oxy)-3-chlorophenyl)-N-(3-fluorocyclopentyl)pyridin-2-amine], the half-maximal inhibitory concentration (IC50) turned out to be 15 nM.

In the case of `CC(C)C[C@](C)(N)COc1ccc(-c2ccnc3cc(C(F)(F)F)nn23)cc1F` [Example 335, (S)-1-(2-fluoro-4-(2-(trifluoromethyl)pyrazolo[1,5-a]pyrimidin-7-yl)phenoxy)-2,4-dimethylpentan-2-amine], the concentration for half-maximal inhibition (IC50) came to 262 nM.

For the compound `CC(C)C[C@](C)(N)COc1ccc(-c2ccnc3cc(C(F)(F)F)nn23)cc1Cl` [Example 336, (S)-1-(2-chloro-4-(2-(trifluoromethyl)pyrazolo[1,5-a]pyrimidin-7-yl)phenoxy)-2,4-dimethylpentan-2-amine], the IC50 was determined as 15 nM.

As to `CC(C)C[C@](C)(N)COc1ccc(-c2ccnc3ccnn23)c2scnc12` [Example 341, (S)-2,4-dimethyl-1-((7-(pyrazolo[1,5-a]pyrimidin-7-yl)benzo[d]thiazol-4-yl)oxy)pentan-2-amine], the IC50 stood at 212 nM.

Consider `Cc1nccc(-c2ccc(OC[C@@](C)(N)CC(C)C)c3ncsc23)n1` [Example 342, (S)-2,4-dimethyl-1-((7-(2-methylpyrimidin-4-yl)benzo[d]thiazol-4-yl)oxy)pentan-2-amine], for which the IC50 was 39 nM.

With `CC(C)C[C@](C)(N)COc1ccc(-c2ccnc(NC3CCOC3)c2)cc1Cl` (stereo partly drawn) [Example 345, 4-(4-(((S)-2-amino-2,4-dimethylpentyl)oxy)-3-chlorophenyl)-N-(tetrahydrofuran-3-yl)pyridin-2-amine], the concentration for half-maximal inhibition (IC50) was found to be 5.2 nM.

Consider `Cc1cc(-c2ccnc(NC3CCOC3)c2)ccc1OC[C@@](C)(N)CC(C)C` (stereo partly drawn) [Example 346, 4-(4-(((S)-2-amino-2,4-dimethylpentyl)oxy)-3-methylphenyl)-N-(tetrahydrofuran-3-yl)pyridin-2-amine], for which the concentration for half-maximal inhibition (IC50) stood at 23 nM.

Consider `Cc1nccc(-c2cnc(OCC3(N)CCC3)c(C)c2)n1` [Example 347, 1-(((3-methyl-5-(2-methylpyrimidin-4-yl)pyridin-2-yl)oxy)methyl)cyclobutanamine], for which the IC50 stood at 964 nM.

With `CC(C)C[C@](C)(N)COc1ccc(-c2ccnc3ccnn23)cc1C(F)F` [Example 351, (S)-1-(2-(difluoromethyl)-4-(pyrazolo[1,5-a]pyrimidin-7-yl)phenoxy)-2,4-dimethylpentan-2-amine], the 50% inhibitory concentration (IC50) was 0.4 nM.

In the case of `CC(C)C[C@](C)(N)COc1ccc(-c2ccnc3ccnn23)cc1CF` [Example 353, (S)-1-(2-(fluoromethyl)-4-(pyrazolo[1,5-a]pyrimidin-7-yl)phenoxy)-2,4-dimethylpentan-2-amine], the IC50 was determined as 0.2 nM.

With `CC(C)C[C@](C)(N)COc1ccc(-c2cc(NC3CCCOC3)ncn2)cc1C(F)(F)F` (stereo partly drawn) [Example 358, 6-(4-(((S)-2-amino-2,4-dimethylpentyl)oxy)-3-(trifluoromethyl)phenyl)-N-(tetrahydro-2H-pyran-3-yl)pyrimidin-4-amine], the IC50 amounted to 385 nM.

In the case of `CC(C)C[C@](C)(N)COc1ccc(-c2ncnc3[nH]ccc23)cc1Cl` [Example 361, (S)-1-(2-chloro-4-(7H-pyrrolo[2,3-d]pyrimidin-4-yl)phenoxy)-2,4-dimethylpentan-2-amine], the half-inhibitory concentration (IC50) worked out at 1.7 nM.

For the compound `CC(C)C[C@](C)(N)COc1ccc(-c2ncnc3[nH]ccc23)cc1C#N` [Example 362, (S)-2-((2-amino-2,4-dimethylpentyl)oxy)-5-(7H-pyrrolo[2,3-d]pyrimidin-4-yl)benzonitrile], the 50% inhibitory concentration (IC50) stood at 1 nM.

For the compound `CC(C)C[C@](C)(N)COc1ccc(-c2ncnc3[nH]ccc23)cc1C(F)(F)F` [Example 363, (S)-1-(4-(7H-pyrrolo[2,3-d]pyrimidin-4-yl)-2-(trifluoromethyl)phenoxy)-2,4-dimethylpentan-2-amine], the half-inhibitory concentration (IC50) turned out to be 0.4 nM.

As to `CC(C)C[C@](C)(N)COc1ccc(-c2ncnc3c2ccn3C)cc1C#N` [Example 364, (S)-2-((2-amino-2,4-dimethylpentyl)oxy)-5-(7-methyl-7H-pyrrolo[2,3-d]pyrimidin-4-yl)benzonitrile], the IC50 is 24 nM.

In the case of `CC(C)C[C@](C)(N)COc1ccc(-c2ncnc3c2ccn3C)cc1F` [Example 365, (S)-1-(2-fluoro-4-(7-methyl-7H-pyrrolo [2,3-d]pyrimidin-4-yl)phenoxy)-2,4-dimethylpentan-2-amine], the 50% inhibitory concentration (IC50) amounted to 98 nM.

Take `CC(C)C[C@](C)(N)COc1ccc(-c2ncnc3c2ccn3C)cc1C(F)(F)F` [Example 366, (S)-2,4-dimethyl-1-(4-(7-methyl-7H-pyrrolo[2,3-d]pyrimidin-4-yl)-2-(trifluoromethyl)phenoxy)pentan-2-amine]: the IC50 was found to be 60 nM.

On to `Cc1cc(-c2ccnc(Nc3nccs3)n2)ccc1OC[C@@](C)(N)CC(C)C` [Example 368, (S)—N-(4-(4-((2-amino-2,4-dimethylpentyl)oxy)-3-methylphenyl)pyrimidin-2-yl)thiazol-2-amine], for which the half-maximal inhibitory concentration (IC50) is 0.3 nM.

Turning to `Cc1cc(-c2ccnc(NC3CC3)n2)ccc1OC[C@@](C)(N)CC(C)C` [Example 369, (S)-4-(4-((2-amino-2,4-dimethylpentyl)oxy)-3-methylphenyl)-N-cyclopropylpyrimidin-2-amine], the IC50 amounted to 1.7 nM.

For the origin of these results see patent US10246469B2, “Biaryl kinase inhibitors” (BRISTOL-MYERS SQUIBB COMPANY, priority 2015, dated 2019).
